Where two headings read alike, the source gives them in different places.
Legend:
σ1 receptor = target: T1, σ1 receptor (Cavia porcellus, UniProt Q60492); assay: Receptor binding assay with [3H]-(+)-pentazocine on guinea pig brain membranes; conditions: for inhibition of the σ1 receptor only at concentrations above: given as above 1 µM or 10 µM
T1 construct: tissue Harlan Winkelmann; host or cells: guinea pig brain membranes
Description: (§1) The pig brains were a donation of the local slaughterhouse (Coesfeld, Germany). Homogenizer: Elvehjem Potter (B. Braun Biotech International, Melsungen, Germany). Centrifuge: High-speed cooling centrifuge model Sorvall RC-5C plus (Thermo Fisher Scientific, Langenselbold, Germany). Filter: Printed Filtermat Typ A and B (Perkin Elmer LAS, Rodgau-Jügesheim, Germany), presoaked in 0.5% aqueous polyethylenimine for 2 h at room temperature before use. […] Before filling to the final volume of 1000 mL, the pH of the solution was adjusted to pH=7.5 by dropwise addition of 1M HCl. The filtration was carried out with a MicroBeta FilterMate-96 Harvester (Perkin Elmer). The scintillation analysis was performed using Meltilex (Typ A or B) solid scintillator (Perkin Elmer). The solid scintillator was melted on the filtermat at a temperature of 95 °C for 5 minutes. After solidifying of the scintillator at room temperature, the scintillation was measured using a MicroBeta Trilux scintillation analyzer (Perkin Elmer). The overall counting efficiency was 20 %. All experiments were carried out in triplicates using standard 96-well-multiplates (Diagonal, Muenster, Germany). […] The Ki-values are given as mean value ± SEM from three independent experiments.
Determination of the affinity to the σ1 receptor
Five guinea pig brains (Harlan Winkelmann, Borchen, Germany) were homogenized with the potter (500-800 rpm, 10 up-and-down strokes) in 6 volumes of cold 0.32 M sucrose. The suspension was centrifuged at 1200 x g for 10 min at 4 °C. […] This procedure was repeated twice. The final pellet was resuspended in 5 to 6 volumes of buffer, the protein concentration was determined according to the method of Bradford using bovine serum albumin as standard, and subsequently the preparation was frozen (-80 °C) in 1.5 mL portions containing about 1.5 mg protein/mL.
The test was performed with the radioligand [^3H]-(+)-pentazocine (42,5 Ci/mmol; Perkin Elmer). […] The incubation was terminated by rapid filtration through the presoaked filtermats using a cell harvester. After washing each well five times with 300 µl of water, the filtermats were dried at 95 °C. The bound radioactivity trapped on the filters was counted in the scintillation analyzer as described in the "General procedures" section. The non-specific binding was determined with 10 µM unlabeled (+)-pentazocine.

[1] = target: T2, polyamine binding site of the NR2B subunit of the NMDA receptor (Homo sapiens, UniProt Q05586+Q13224); assay: Filtration-based receptor binding assay with [3H]-Ifenprodil as radioligand; conditions: 5 nM [3H]-Ifenprodil, membrane homogenates of mouse L(tk-) cells transfected with NR1-1a/NR2B, 180 min at 37 °C, read-out: affinity to the NR2B binding site of the NMDA receptor
T2 construct: expressed in transfected cells; host or cells: mouse L(tk-) cells, dexamethasone-induced; gift from D. Steinhilber, University of Frankfurt
T2 sequence (Q13224 27-1484, other chains not shown): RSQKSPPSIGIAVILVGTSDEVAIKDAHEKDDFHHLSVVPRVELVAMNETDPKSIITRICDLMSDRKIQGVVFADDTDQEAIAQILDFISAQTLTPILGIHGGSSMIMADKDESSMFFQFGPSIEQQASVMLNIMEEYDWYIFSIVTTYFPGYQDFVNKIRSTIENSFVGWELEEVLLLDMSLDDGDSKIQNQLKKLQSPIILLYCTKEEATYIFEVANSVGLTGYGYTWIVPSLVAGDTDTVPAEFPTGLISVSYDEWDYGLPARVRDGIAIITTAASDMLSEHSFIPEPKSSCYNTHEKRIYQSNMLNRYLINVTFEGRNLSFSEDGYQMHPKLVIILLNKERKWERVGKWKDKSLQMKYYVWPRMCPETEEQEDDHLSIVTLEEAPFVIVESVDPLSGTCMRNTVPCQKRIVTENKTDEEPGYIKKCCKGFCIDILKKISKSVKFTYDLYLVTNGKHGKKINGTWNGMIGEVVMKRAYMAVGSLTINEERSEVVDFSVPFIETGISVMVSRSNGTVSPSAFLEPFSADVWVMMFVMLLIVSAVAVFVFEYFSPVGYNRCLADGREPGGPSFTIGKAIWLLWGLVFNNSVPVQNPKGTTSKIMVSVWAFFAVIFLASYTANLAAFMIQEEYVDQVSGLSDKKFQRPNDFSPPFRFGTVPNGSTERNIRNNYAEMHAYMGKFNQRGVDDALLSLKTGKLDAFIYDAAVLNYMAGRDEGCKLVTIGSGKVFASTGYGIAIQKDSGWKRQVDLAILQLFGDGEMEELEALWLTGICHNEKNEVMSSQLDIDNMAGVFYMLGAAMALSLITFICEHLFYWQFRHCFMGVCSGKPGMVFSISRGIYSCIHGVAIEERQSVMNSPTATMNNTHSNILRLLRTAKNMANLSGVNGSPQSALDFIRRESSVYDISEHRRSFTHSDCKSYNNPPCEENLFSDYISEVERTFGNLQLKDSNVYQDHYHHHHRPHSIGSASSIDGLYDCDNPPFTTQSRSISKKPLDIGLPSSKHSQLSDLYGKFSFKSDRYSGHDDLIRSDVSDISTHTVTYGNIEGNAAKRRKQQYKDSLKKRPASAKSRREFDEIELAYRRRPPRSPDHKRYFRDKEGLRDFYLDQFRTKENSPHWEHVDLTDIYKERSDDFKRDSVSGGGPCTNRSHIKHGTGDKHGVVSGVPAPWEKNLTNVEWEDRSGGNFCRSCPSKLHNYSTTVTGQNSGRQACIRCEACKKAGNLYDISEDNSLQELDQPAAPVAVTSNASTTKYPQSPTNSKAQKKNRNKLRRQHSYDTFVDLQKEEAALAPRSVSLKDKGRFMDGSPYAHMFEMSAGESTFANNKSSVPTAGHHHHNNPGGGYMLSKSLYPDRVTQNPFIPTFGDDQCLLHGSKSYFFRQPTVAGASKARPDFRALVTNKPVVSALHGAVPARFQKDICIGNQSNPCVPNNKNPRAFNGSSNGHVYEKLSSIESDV
Description: Mouse L(tk-) cells stably transfected with the dexamethasone-inducible eukaryotic expression vectors pMSG NR1-1a, pMSG NR2B in a 1:5 ratio were a generous gift from D. Steinhilber (Department of Pharmacy, University of Frankfurt, Germany). The transformed L(tk-) cells were grown in Modified Earl's Medium (MEM) containing 10% of standardized FCS (Biochrom AG, Berlin, Germany). The expression of the NMDA receptor at the cell surface was induced after the cell density of the adherent growing cells had reached approximately 90% of confluency. For the induction, the original growth medium was replaced by growth medium containing 4 µM dexamethasone and 4 µM ketamine (final concentration). After 24 h the cells were harvested by trypsination and pelleted (10 min, 5,000 x g, Hettich Rotina 35R centrifuge, Tuttlingen, Germany).
For the binding assay, the cell pellet was resuspended in PBS buffer and the number of cells was determined using an improved Neubauer's counting chamber (VWR, Darmstadt, Germany). Subsequently, the cells were lysed by sonication (4 °C, 6 x 10 s cycles with breaks of 10 sec). The resulting cell fragments were centrifuged with a high performance cool centrifuge (20,000 x g, 4 °C, Sorvall RC-5 plus, Thermo Scientific). The supernatant was discarded and the pellet resuspended in a defined volume of phosphate buffer saline (PBS) yielding cell fragments of approximately 500,000 cells/mL. The suspension of membrane homogenates was sonicated again (4 °C, 2 x 10 s cycles with a break of 10 min) and stored at -80 °C.
The cell membrane suspension was added last. All experiments were carried out in triplicates. The incubation was terminated by rapid filtration through filtermats using a cell harvester (MicroBeta FilterMate-96 Harvester, Perkin Elmer). Prior to harvesting, the filtermats were presoaked in 0.5% aqueous polyethylenimine for 2 h at room temperature. After washing each well five times with 300 µL of water, the filtermats were dried at 95 °C. Subsequently, the solid scintillator was placed on the filtermat and melted at 95 °C. After 5 min, the solid scintillator was allowed to solidify at room temperature. The bound radioactivity trapped on the filters was counted in the scintillation analyzer (Microbeta Counter, Perkin Elmer). The overall counting efficiency was 20%.
The protein concentration was determined by the method of Bradford, modified by Stoscheck. The Bradford solution was prepared by dissolving 5 mg of Coomassie Brilliant Blue G 250 in 2.5 mL EtOH (95%, v/v). 10 mL deionized H2O and 5 mL phosphoric acid (85%, m/v) were added to this solution, the mixture was stirred and filled up to a total volume of 50.0 mL with deionized water. The calibration was carried out using bovine serum protein as a standard in concentrations between 0.1 and 10 mg /L. In a 96-well standard multiplate, 10 µL of the calibration solution or 10 µL of the membrane receptor preparation were mixed with 190 µL of the Bradford solution, respectively.
Kd and Bmax were calculated as described in the "Data analysis" section.
Data analysis was performed with Graph Pad Prism® Software, Version 3.0 (Graph Pad Software Inc., San Diego, CA, USA).
Saturation analyses were made by nonlinear regression using the "one-site-saturation" calculation method. The IC50 values of the test compounds used in the competitive binding experiments were determined by nonlinear regression using the "one-site-competition" calculation method. […] The Ki values are given as mean values from three independent experiments ± Standard Error of the Mean (S.E.M).

σ2 receptor = target: T3, σ2 receptor (Rattus norvegicus, UniProt Q5U3Y7); assay: Receptor binding assay with [3H]-ditolylguanidine on rat liver membranes; conditions: for Ki: read-out: affinity to the σ2 receptor
T3 construct: tissue Harlan Winkelmann; host or cells: rat liver membranes
T3 sequence (Q5U3Y7 1-176): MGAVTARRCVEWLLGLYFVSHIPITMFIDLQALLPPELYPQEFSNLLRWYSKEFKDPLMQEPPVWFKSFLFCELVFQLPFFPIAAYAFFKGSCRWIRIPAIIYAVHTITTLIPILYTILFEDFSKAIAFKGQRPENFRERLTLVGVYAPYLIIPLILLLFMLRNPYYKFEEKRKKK
Description: as §1
Determination of affinity to the σ2 receptor
Two rat livers (Harlan Winkelmann, Borchen, Germany) were cut into smaller pieces and homogenized with the potter (500-800 rpm, 10 up-and-down strokes) in 6 volumes of cold 0.32 M sucrose. The suspension was centrifuged at 1200 x g for 10 min at 4 °C. The supernatant was separated and centrifuged at 31000 x g for 20 min at 4 °C. The pellet was resuspended in 5-6 volumes of buffer (50 mM TRIS, pH 8.0) and incubated at room temperature for 30 minutes. After the incubation, the suspension was centrifuged again at 31000 x g for 20 min at 4 °C. The final pellet was resuspended in 5 to 6 volumes of buffer, the protein concentration was determined according to the method of Bradford using bovine serum albumin as standard, and subsequently the preparation was frozen (-80 °C) in 1.5 mL portions containing about 2 mg protein/mL.
(50 Ci/mmol; ARC). […] The incubation was terminated by rapid filtration through the presoaked filtermats using a cell harvester. After washing each well five times with 300 µL of water, the filtermats were dried at 95 °C. Subsequently, the solid scintillator was placed on the filtermat and melted at 95 °C. The bound radioactivity trapped on the filters was counted in the scintillation analyzer as described in the "General procedures" section.

[2] = 2 nM [3H]-(+)-pentazocine, guinea pig brain membranes
[3] = Ki mean of three experiments ± S.E.M.
[4] = 3 nM [3H]-ditolylguanidine with 2 µM (+)-pentazocine, 180 min at room temperature, mean ± SEM
[5] = 2 nM [3H]-(+)-pentazocine, guinea pig brain membranes, 180 min at 37 °C, mean ± SEM, read-out: affinity to the σ1 receptor
[6] = 3 nM [3H]-ditolylguanidine with 2 µM (+)-pentazocine, values given in µM
[7] = 3 nM [3H]-ditolylguanidine with 2 µM (+)-pentazocine

T1 sequence (Q60492 whole entry): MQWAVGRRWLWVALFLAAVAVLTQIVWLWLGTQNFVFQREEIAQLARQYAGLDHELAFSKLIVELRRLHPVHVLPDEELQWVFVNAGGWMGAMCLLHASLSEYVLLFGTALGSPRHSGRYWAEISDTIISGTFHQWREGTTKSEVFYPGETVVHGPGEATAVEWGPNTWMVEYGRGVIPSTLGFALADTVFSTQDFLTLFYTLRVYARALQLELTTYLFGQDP

Row | Ki [1, 3] | Ki (σ2 receptor; [4]) | Ki (σ1 receptor; [5]) | SMILES | other results
1 | 0.393 µM | 0.0977 µM |  | O=C(c1ccccc1)N1CCC(N2CCc3cc(O)ccc3C(O)C2)CC1 (stereo not shown) [formula (26)] | inhibition of the σ1 receptor only at concentrations above (σ1 receptor; [2]): above 1 µM
2 |  |  | 0.155 µM | COc1ccc2c(c1)CCN(CCCSc1ccccc1)CC2O (stereo not shown) [formula (8)] | Ki ([1]; values given in µM): 1.88 µM; Ki (σ2 receptor; [6]): 1.52 µM
3 | 0.171 µM |  | 0.0408 µM | C[C@H]1[C@H](O)c2ccc(O)cc2CCN1CCCCc1ccccc1 [formula (29)] | 
4 | 0.00486 µM | 0.00856 ± 0.00433 µM |  | Oc1ccc2c(c1)CCN([C@H]1CC[C@@H](c3ccccc3)CC1)CC2O (relative stereo) [formula (21)] | 
5 | 0.099 µM |  | 0.604 µM | CC(C)(C)c1ccc(C(=O)CCCN2CCc3cc(OCc4ccccc4)ccc3C(O)C2)cc1 (stereo not shown) [formula (13)] | Ki (σ2 receptor; [6]): 6.43 µM
6 |  |  | 0.172 µM | CN(Cc1ccccc1)C(=O)CN1CCc2cc(O)ccc2C(O)C1 (stereo not shown) [formula (16)] | Ki ([1]; values given in µM): 7.68 µM; Ki (σ2 receptor; [6]): 1.58 µM
7 | 0.156 µM |  |  | OC1CN([C@H]2CC[C@@H](c3ccccc3)CC2)CCc2cc(OCc3ccccc3)ccc21 (relative stereo) [formula (19)] | inhibition of the σ1 receptor only at concentrations above (σ1 receptor; [2]): above 1 µM; inhibition of the σ2 receptor only at concentrations above (σ2 receptor; [7]): above 1 µM
8 |  | 0.308 ± 0.116 µM | 0.0947 ± 0.051 µM | COc1ccc2c(c1)CCN(CCCCSc1ccccc1)CC2O (stereo not shown) [formula (7)] | Ki ([1]; values given in µM): 1.04 µM
9 | 0.0452 µM |  | 0.349 µM | O=S(=O)(CCCN1CCc2cc(OCc3ccccc3)ccc2C(O)C1)c1ccccc1 (stereo not shown) [formula (10)] | Ki (σ2 receptor; [6]): 3.04 µM
10 | 0.107 µM |  | 0.0456 µM | COc1ccc2c(c1)CCN(CCCC1(c3ccc(F)cc3)OCC(C)(C)CO1)CC2O (stereo not shown) [formula (11)] | Ki (σ2 receptor; 3 nM [3H]-[…] with 2 µM (+)-pentazocine, 180 min at room temperature, mean ± SEM): 0.103 µM
11 | 0.046 µM | 0.653 µM | 0.376 µM | OC1CN(CCCSc2ccccc2)CCc2cc(OCc3ccccc3)ccc21 (stereo not shown) [formula (12)] | 
12 | 0.0221 µM | 0.103 µM | 0.393 µM | C[C@H]1[C@@H](O)c2ccc(O)cc2CCN1CCCCc1ccccc1 [formula (28)] | 
13 | 0.0342 µM | 0.00893 ± 0.00257 µM | 0.2 ± 0.062 µM | Oc1ccc2c(c1)CCN([C@H]1CC[C@H](c3ccccc3)CC1)CC2O (relative stereo) [formula (23)] | 
14 | 0.249 ± 0.063 µM |  | 0.293 ± 0.101 µM | OC1CN(CCCCc2ccccc2)CCc2cc(OCc3ccccc3)ccc21 (stereo not shown) [formula (9)] | Ki (σ2 receptor; [6]): 1.05 µM
15 | 0.00112 µM | 0.753 µM | 0.183 µM | OC1CN(C2CCC3(CC2)OCCO3)CCc2cc(OCc3ccccc3)ccc21 (stereo not shown) [formula (25)] | 
16 | 0.0164 µM |  | 0.846 µM | C[C@@H]1[C@@H](O)c2ccc(O)cc2CCN1CCCCc1ccccc1 [formula (30)] | 
17 | 0.0604 µM | 0.267 ± 0.055 µM | 0.0443 ± 0.0141 µM | COc1ccc2c(c1)CCN(CCCC(=O)c1ccc(C(C)(C)C)cc1)CC2O (stereo not shown) [formula (14)] | 
18 | 0.209 µM | 0.00608 ± 0.00148 µM | 0.0421 ± 0.0099 µM | COc1ccc2c(c1)CCN(CCCCc1ccccc1)[C@@H](C)[C@H]2O [formula (17)] | 
19 | 0.192 ± 0.026 µM | 0.0816 ± 0.0444 µM | 0.0331 ± 0.0298 µM | COc1ccc2c(c1)CCN(C1CCC(c3ccccc3)CC1)CC2O (stereo not shown) [formula (3)] | 
20 | 0.586 µM | 0.0185 ± 0.0042 µM | 0.00321 ± 0.00142 µM | COc1ccc2c(c1)CCN(CCCCc1ccccc1)[C@H](C)[C@@H]2O [formula (18)] | 
21 |  | 0.311 µM | 0.0104 ± 0.0014 µM | OC1CN(C2CCC(c3ccccc3)CC2)CCc2cc(OCc3ccccc3)ccc21 (stereo not shown) [formula (20)] | Ki ([1]; values given in µM): 2.51 µM
22 | 0.258 µM |  |  | COc1ccc2c(c1)CCN(CCCC(=O)c1ccc(F)cc1)CC2O (stereo not shown) [formula (6)] | inhibition of the σ1 receptor only at concentrations above (σ1 receptor; [2]): above 1 µM; inhibition of the σ2 receptor only at concentrations above (σ2 receptor; [7]): above 1 µM

Row | SMILES | Ki [1, 3] | Ki (σ2 receptor; [4]) | Ki (σ1 receptor; [5]) | other results
23 | CCCCCCCCN1CCc2cc(OC)ccc2C(O)C1 (stereo not shown) [formula (2)] | 0.591 ± 0.15 µM | 0.108 ± 0.09 µM |  | Ki (σ1 receptor): 0.0446 ± 0.0214 µM
24 | Oc1ccc2c(c1)CCN(CCCCc1ccccc1)CC2O (stereo not shown) [formula (4)] | 0.0153 ± 0.0012 µM |  |  | 
25 | COc1ccc2c(c1)CCN(CCCCc1ccccc1)CC2O (stereo not shown) [formula (1)] | 0.00512 µM | 0.554 ± 0.221 µM | 0.182 ± 0.067 µM | 
